Measured values from ChEMBL document CHEMBL1201862, “PubChem BioAssay data set” (2004).
Calls of active or inactive are those of the source.

Tests used:
INS1 [1] = assay: beta cell apoptosis inhibitors, cytokine rescue, dose response, luminescence, retest (AID 449756); format: functional, cell-based; conditions: Rattus norvegicus;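 also: cell death triggered by IL-1 beta plus TNF-alpha plus IFN-gamma mixture; protective hits raise ATP signal compared with cytokine alone wells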
[2] = cytotoxicity in HMLE control line with eGFP shRNA, dose response, counter-screen for HMLE_sh_ECad selective toxicity project, cell-based, HMLE_sh_eGFP, luminescence (AID 463074); format: functional, Homo sapiens;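 also: HMLE human mammary epithelial cells expressing control shRNA against eGFP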
[3] = Luminescence Cell-Based Dose Retest to Confirm Inhibitors of Cancer Stem Cells. [Related pubchem assays (depositor defined):AID2717, AID2721]; format: functional; conditions: Homo sapiens
[4] = target: 5-hydroxytryptamine receptor 5A (Homo sapiens, UniProt P47898); assay: Counterscreen for agonists of OPRM1-OPRD1 heterodimerization: luminescence-based cell-based high throughput dose response assay to identify agonists of 5-hydroxytryptamine (serotonin) 5A receptor (HTR5A). [Related pubchem assays (depositor defined):AID504326, AID504355, AID504692, AID504904, AID504905]; format: functional
[5] = target: Voltage-gated inwardly rectifying potassium channel KCNH2 (Homo sapiens, UniProt Q12809); conditions: Potency;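 also: confirmatory quantitative high-throughput screen measuring inhibition of hERG channel activity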
[6] = CEM21 lymphoblast cell cytotoxicity, dose response, cytotoxicity control for viral fusion inhibitor project, CellTiter-Glo luminescence, cherry-picked (AID 652042); format: functional, cell-based;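 also: potency for signal decrease meaning cytotoxicity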
[7] = target: Delta-type opioid receptor (Homo sapiens, UniProt P41143); assay: Counterscreen for agonists of heterodimerization of the mu 1 (OPRM1) and delta 1 (OPRD1) opioid receptors: Luminescence-based cell-based high throughput dose response assay to identify agonists of OPRD1 homodimerization. [Related pubchem assays (depositor defined):AID504326, AID504355, AID504692, AID504904, AID504905]; format: functional
[8] = inhibitors of HIV Env-driven cell fusion, dose response, cherry-pick (AID 652057); format: functional, cell-based
Mu-type opioid receptor = Mu-type opioid receptor (Homo sapiens, UniProt P35372); assay: Counterscreen for agonists of heterodimerization of the mu 1 (OPRM1) and delta 1 (OPRD1) opioid receptors: Luminescence-based cell-based high throughput dose response assay to identify agonists of OPRM1 homodimerization.; format: functional;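 also: U2OS cells expressing OPRM1 and beta-arrestin as split beta-galactosidase partners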
Cytochrome P450 2D6 = Cytochrome P450 2D6 (Homo sapiens, UniProt P10635);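 also: CYP2D6 member of a cytochrome P450 panel assay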
Paired box protein Pax-8 = Paired box protein Pax-8 (Homo sapiens, UniProt Q06710); assay: inhibitors of PAX8-driven TPO luciferase reporter, dose response, RMG-I cells, cherry-pick (AID 687027); format: functional, cell-based;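 also: luciferase reporter driven by Pax8 target thyroperoxidase promoter measured by SteadyGlo luminescence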
INS1 [9] = assay: protection of INS-1E cells from cytokine death, dose response, ATP luminescence, dry powder (AID 488844); format: functional, cell-based; conditions: Rattus norvegicus
[10] = target: Dual specificity protein kinase CLK1 (Homo sapiens, UniProt P49759); assay: CLK1 kinase inhibitors, off-target check, dose response, selectivity assay for Dyrk1A inhibitor project, biochemical, cherry-picked samples (AID 588811)
[11] = target: Dual specificity tyrosine-phosphorylation-regulated kinase 1A (Rattus norvegicus, UniProt Q63470); format: biochemical, Homo sapiens
[12] = HEp-2 cell cytotoxicity, dose response, cytotoxicity control for RSV inhibitor project, HTS (AID 2410); format: functional; conditions: human respiratory syncytial virus
HEK293 [13] = assay: cytotoxicity in HEK293T NF-kB-Luc cells, SAR follow-up, cytotoxicity control for NF-kB activator project, cell-based, resazurin fluorescence (AID 493251); format: functional; conditions: Homo sapiens
HEK293 [14] = assay: SAR Analysis of small molecule inhibitors of T-cell specific antigen receptor-induced NF-kB activation in a HEK-293T cell line using a luminescence assay - Set 2. [Related pubchem assays (depositor defined):AID435003, AID435012, AID489026]; format: functional, cell-based; conditions: Homo sapiens
Jurkat = assay: SAR Analysis of small molecule inhibitors of T-cell specific antigen receptor-induced NF-kB activation in a Jurkat cell line using a luminescence assay - Set 2. [Related pubchem assays (depositor defined):AID435003, AID435012, AID465]; format: functional, cell-based; conditions: Homo sapiens

Sequence of Paired box protein Pax-8 (Q06710 whole entry): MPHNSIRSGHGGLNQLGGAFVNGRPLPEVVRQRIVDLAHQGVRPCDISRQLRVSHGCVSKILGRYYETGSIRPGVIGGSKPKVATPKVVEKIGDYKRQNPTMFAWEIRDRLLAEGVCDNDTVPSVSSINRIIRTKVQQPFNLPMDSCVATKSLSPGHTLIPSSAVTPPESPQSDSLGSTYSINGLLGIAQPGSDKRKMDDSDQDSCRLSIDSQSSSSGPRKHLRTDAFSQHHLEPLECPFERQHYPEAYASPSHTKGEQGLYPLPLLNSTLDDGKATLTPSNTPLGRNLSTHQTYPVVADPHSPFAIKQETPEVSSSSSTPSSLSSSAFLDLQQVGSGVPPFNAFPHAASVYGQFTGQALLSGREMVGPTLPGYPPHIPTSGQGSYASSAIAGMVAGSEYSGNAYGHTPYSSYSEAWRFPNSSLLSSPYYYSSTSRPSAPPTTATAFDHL
Sequence of Cytochrome P450 2D6 (P10635 whole entry): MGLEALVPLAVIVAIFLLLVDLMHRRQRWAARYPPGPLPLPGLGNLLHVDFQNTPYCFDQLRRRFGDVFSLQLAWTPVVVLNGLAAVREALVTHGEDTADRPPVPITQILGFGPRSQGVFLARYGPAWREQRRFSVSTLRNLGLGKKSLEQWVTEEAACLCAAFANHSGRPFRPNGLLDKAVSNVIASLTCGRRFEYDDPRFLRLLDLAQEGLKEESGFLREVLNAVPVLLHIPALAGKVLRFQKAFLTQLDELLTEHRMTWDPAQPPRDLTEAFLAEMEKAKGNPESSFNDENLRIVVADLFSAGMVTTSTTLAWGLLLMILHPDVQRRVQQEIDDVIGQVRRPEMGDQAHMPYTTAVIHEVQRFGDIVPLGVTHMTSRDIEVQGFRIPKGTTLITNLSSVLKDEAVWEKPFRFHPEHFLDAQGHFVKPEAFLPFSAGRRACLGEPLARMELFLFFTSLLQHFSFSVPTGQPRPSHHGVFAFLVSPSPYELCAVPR
Sequence of Voltage-gated inwardly rectifying potassium channel KCNH2 (Q12809 whole entry, the tested form may be a part): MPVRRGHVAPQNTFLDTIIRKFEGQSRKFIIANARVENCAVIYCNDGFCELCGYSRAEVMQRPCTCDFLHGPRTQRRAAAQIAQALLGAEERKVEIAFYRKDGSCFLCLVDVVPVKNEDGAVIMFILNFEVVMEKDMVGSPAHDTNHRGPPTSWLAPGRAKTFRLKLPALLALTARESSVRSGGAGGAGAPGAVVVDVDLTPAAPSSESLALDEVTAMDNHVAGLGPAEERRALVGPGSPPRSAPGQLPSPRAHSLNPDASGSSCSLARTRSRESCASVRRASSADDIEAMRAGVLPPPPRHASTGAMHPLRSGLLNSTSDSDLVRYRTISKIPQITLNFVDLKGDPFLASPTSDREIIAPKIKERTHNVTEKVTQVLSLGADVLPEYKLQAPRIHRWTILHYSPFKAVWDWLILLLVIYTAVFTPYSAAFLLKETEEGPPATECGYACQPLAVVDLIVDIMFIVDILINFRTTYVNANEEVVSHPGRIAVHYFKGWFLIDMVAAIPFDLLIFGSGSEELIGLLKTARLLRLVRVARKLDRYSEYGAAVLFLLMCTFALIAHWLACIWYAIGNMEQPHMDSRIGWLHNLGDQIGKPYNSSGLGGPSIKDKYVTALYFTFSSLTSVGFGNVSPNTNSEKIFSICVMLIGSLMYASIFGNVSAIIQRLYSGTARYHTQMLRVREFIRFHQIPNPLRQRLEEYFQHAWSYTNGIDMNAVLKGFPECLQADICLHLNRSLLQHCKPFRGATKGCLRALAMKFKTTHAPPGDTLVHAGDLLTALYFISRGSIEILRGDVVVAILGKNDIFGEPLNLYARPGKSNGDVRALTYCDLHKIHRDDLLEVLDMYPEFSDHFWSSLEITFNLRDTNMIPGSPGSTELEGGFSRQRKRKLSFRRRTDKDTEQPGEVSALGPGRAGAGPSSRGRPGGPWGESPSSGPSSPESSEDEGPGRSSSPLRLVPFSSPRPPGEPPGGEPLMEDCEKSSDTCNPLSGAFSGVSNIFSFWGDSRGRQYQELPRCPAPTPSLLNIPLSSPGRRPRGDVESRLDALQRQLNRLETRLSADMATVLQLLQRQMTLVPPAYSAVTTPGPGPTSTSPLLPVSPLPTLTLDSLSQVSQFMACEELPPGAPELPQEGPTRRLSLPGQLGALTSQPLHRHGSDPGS
Sequence of 5-hydroxytryptamine receptor 5A (P47898 whole entry): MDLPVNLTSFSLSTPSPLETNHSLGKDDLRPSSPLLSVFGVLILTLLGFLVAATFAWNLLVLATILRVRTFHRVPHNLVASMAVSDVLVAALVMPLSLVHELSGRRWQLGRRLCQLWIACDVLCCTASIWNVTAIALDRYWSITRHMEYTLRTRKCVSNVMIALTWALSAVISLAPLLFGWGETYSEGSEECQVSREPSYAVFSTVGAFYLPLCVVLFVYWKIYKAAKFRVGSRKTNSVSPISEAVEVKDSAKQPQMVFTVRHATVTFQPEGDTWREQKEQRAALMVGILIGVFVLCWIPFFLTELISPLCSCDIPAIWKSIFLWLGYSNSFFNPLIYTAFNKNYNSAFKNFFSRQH
Sequence of Dual specificity protein kinase CLK1 (P49759 whole entry): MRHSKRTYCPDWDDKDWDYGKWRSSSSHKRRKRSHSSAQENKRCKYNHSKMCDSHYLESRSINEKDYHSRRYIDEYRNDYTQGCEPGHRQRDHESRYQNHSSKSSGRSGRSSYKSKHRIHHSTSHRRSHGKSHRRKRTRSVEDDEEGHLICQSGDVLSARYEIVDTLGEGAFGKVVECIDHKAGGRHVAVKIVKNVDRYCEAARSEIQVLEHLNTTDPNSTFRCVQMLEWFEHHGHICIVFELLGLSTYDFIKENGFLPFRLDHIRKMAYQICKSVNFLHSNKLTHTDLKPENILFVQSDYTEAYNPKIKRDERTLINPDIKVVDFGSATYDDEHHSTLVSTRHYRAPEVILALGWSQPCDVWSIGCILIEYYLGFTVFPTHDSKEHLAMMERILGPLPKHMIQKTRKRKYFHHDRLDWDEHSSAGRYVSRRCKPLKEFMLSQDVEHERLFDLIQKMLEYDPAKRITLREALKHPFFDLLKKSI
Sequence of Delta-type opioid receptor (P41143 whole entry, the tested form may be a part): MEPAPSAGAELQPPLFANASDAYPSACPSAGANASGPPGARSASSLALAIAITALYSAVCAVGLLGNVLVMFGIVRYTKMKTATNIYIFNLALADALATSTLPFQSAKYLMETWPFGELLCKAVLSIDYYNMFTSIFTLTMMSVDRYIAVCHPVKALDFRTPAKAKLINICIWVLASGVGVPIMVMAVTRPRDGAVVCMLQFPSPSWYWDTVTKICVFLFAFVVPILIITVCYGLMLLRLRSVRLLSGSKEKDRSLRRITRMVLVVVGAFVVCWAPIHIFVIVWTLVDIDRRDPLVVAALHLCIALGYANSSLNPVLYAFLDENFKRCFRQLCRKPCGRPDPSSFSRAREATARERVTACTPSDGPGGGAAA
Sequence of Mu-type opioid receptor (P35372 whole entry): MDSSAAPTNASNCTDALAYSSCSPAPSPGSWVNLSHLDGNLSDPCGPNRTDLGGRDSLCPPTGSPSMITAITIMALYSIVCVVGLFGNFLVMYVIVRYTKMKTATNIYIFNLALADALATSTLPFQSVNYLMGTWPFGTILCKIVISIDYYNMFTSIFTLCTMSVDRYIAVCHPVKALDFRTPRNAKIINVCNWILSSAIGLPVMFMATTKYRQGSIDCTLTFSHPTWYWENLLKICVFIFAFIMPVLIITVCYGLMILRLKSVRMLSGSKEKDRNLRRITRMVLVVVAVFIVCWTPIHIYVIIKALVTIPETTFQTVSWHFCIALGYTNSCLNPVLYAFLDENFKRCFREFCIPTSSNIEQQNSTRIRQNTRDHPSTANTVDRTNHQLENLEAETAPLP

**Q.** For `c1ccc(N2CCN(CC3CCCCC3)CC2)cc1`, which AC50 (INS1 [1]) is on record?
**A.** Its AC50 is 91.4 µM (active).

**Q.** What about the AC50 [2] of the same molecule?
**A.** The AC50 was 95.2 µM (active).

**Q.** And the AC50 [3]?
**A.** The AC50 was 25.3 µM (active).

**Q.** Which results are given for `CCN(c1nc(N)c(C(=O)NC(=N)N)nc1Cl)C(C)C` [5-(N-ETHYL-N-ISOPROPYL)AMILORIDE]?
**A.** EC50 [4]: 85.8 µM (inactive); AC50 [5]: 35.5 µM (inconclusive); AC50 [6]: 63.8 µM (active); EC50 [7]: 64.1 µM (inactive); AC50 [8]: 1.98 µM (active); EC50 (Mu-type opioid receptor): > 92.5 µM (inactive); AC50 (Cytochrome P450 2D6): 31.6 µM (inconclusive); AC50 (Paired box protein Pax-8): 20.9 µM (active)

**Q.** With `COc1ccc(S(=O)(=O)N(C)C[C@@H]2Oc3c(NS(=O)(=O)c4ccc(C)cc4)cccc3C(=O)N([C@@H](C)CO)C[C@H]2C)cc1` as the molecule, how does the AC50 (INS1 [9]) read?
**A.** Its AC50 is > 235 µM (inactive).

**Q.** Which AC50 [10] does the source give for `O=c1cc(-c2ccccc2Cl)oc2c(NS(=O)(=O)c3ccccc3C(F)(F)F)ccc(O)c12` here?
**A.** The AC50 was 18.9 µM (active).

**Q.** And the AC50 [11]?
**A.** Its AC50 is 65.4 µM (active).

**Q.** And the CC50 [12]?
**A.** Its CC50 is 48.5 µM (active).

**Q.** With `CC(C)(C)NC(=O)CCc1nc(-c2ccc(C(C)(C)C)cc2)no1` as the molecule, how does the IC50 (HEK293 [13]) read?
**A.** Its IC50 is 39 µM (inactive).

**Q.** What about the IC50 (HEK293 [14]) of the same molecule?
**A.** The IC50 was 6.68 µM (active).

**Q.** And the IC50 (Jurkat)?
**A.** The IC50 was 2.77 µM (active).
